We go through 20 compounds from patent publication US9295673B2, “Combination of mTOR inhibitors and P13-kinase inhibitors, and uses thereof” (Intellikine LLC, priority 2011, dated 2016).

For one assay, the target named is T1, mTOR (Homo sapiens, UniProt P42345).
T1 construct: purchased Invitrogen
As to the kind of experiment: mTOR kinase inhibition assay (radiometric or LanthaScreen TR-FRET). Format: biochemical. The note with it: read-out: mTORC IC50. (Time-resolved FRET reads energy transfer from a long-lived donor to a nearby acceptor.)

In a further assay the target is PI3K α (Homo sapiens, UniProt P42336). As to the kind of experiment: PI 3-Kinase (human) HTRF assay, PI3K α. The note with it: read-out: PI3K α IC50.
Another assay addresses PI3K β (Homo sapiens, UniProt P42338). As to the kind of experiment: PI 3-Kinase (human) HTRF assay, PI3K β. As to conditions: read-out: PI3K β IC50.
The target in the next assay is PI3K δ (Homo sapiens, UniProt O00329). Description: PI 3-Kinase (human) HTRF assay, PI3K δ. The note with it: read-out: PI3K δ IC50.
The target in a further assay is PI3K γ (Homo sapiens, UniProt P48736). Description: PI 3-Kinase (human) HTRF assay, PI3K γ. As to conditions: read-out: PI3K γ IC50.

Like-named read-outs stand apart in the source and are kept apart here. Bounds are passed on as bounds.

Chain of PI3K α (P42336 whole entry): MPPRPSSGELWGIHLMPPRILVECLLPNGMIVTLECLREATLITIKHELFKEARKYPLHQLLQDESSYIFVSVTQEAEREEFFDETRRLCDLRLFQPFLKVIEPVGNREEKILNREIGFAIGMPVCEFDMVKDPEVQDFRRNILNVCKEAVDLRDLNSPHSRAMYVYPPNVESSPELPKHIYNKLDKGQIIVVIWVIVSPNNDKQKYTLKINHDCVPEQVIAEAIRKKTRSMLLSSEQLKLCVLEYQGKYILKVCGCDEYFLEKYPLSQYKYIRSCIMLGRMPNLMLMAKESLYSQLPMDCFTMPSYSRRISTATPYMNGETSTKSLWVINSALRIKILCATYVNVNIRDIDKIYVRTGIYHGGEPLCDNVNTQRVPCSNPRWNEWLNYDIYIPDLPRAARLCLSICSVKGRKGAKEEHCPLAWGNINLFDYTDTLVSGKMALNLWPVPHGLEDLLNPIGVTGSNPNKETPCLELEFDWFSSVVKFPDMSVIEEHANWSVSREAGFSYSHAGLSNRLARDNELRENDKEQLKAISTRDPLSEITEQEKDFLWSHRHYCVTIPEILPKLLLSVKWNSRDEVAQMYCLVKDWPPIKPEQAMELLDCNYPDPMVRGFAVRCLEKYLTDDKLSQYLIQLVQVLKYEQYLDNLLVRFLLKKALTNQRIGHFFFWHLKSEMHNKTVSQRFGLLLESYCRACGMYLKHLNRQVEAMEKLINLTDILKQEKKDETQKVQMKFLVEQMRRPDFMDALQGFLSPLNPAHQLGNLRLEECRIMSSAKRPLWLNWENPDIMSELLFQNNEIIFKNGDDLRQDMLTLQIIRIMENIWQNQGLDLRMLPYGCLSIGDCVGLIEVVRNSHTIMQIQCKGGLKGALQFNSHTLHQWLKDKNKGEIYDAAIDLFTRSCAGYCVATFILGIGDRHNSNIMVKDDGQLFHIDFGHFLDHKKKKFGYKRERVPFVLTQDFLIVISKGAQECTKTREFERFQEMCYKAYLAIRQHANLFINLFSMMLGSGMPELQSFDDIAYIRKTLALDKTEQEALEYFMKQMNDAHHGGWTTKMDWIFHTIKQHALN
Chain of PI3K α (P27986 whole entry partner): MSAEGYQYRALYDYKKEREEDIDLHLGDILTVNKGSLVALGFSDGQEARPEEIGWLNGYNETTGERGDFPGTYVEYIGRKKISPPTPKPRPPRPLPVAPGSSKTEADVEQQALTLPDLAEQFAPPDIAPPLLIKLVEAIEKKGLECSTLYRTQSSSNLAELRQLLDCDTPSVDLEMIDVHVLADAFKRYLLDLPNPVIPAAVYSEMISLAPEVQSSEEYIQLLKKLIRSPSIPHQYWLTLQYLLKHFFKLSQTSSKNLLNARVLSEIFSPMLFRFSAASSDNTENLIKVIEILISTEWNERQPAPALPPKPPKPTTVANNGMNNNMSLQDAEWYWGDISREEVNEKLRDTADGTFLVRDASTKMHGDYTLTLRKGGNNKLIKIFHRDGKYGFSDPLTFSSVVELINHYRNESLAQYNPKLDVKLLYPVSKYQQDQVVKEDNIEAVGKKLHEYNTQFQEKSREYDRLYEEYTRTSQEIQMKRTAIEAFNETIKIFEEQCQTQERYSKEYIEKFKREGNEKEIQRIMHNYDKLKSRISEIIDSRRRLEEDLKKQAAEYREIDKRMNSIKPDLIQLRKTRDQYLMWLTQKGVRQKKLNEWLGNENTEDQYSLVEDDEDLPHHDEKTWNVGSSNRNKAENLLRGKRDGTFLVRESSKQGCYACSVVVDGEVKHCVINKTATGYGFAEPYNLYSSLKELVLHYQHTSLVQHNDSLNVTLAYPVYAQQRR
Chain of PI3K β (P42338 whole entry): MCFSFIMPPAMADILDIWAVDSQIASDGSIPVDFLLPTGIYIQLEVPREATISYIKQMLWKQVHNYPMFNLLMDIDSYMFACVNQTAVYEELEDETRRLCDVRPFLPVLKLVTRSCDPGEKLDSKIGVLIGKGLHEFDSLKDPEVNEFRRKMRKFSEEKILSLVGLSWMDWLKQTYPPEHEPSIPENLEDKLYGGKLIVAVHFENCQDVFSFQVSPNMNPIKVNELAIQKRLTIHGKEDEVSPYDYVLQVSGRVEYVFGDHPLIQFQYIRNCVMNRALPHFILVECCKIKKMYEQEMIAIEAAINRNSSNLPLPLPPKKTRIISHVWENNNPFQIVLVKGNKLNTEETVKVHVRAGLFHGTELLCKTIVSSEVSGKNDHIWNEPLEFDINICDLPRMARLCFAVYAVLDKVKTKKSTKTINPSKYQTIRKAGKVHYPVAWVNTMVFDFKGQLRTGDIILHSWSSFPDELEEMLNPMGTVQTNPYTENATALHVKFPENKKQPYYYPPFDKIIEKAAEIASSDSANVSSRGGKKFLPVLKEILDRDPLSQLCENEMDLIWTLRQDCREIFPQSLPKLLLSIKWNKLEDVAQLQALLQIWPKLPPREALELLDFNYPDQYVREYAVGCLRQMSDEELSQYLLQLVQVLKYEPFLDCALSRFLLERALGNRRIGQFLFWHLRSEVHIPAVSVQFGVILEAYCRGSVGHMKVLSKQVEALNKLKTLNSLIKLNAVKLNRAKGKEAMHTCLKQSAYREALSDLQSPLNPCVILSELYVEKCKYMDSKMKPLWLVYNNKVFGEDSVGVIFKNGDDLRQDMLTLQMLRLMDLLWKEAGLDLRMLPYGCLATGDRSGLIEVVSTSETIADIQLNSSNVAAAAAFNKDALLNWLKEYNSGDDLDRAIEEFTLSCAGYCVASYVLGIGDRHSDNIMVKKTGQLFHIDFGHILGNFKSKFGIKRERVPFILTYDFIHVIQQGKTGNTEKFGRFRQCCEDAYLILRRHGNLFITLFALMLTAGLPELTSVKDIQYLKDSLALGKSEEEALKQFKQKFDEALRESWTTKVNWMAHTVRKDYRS
Chain of PI3K β (P27986 whole entry partner): as the sequence (P27986 whole entry partner) above
Chain of PI3K γ (P48736 whole entry): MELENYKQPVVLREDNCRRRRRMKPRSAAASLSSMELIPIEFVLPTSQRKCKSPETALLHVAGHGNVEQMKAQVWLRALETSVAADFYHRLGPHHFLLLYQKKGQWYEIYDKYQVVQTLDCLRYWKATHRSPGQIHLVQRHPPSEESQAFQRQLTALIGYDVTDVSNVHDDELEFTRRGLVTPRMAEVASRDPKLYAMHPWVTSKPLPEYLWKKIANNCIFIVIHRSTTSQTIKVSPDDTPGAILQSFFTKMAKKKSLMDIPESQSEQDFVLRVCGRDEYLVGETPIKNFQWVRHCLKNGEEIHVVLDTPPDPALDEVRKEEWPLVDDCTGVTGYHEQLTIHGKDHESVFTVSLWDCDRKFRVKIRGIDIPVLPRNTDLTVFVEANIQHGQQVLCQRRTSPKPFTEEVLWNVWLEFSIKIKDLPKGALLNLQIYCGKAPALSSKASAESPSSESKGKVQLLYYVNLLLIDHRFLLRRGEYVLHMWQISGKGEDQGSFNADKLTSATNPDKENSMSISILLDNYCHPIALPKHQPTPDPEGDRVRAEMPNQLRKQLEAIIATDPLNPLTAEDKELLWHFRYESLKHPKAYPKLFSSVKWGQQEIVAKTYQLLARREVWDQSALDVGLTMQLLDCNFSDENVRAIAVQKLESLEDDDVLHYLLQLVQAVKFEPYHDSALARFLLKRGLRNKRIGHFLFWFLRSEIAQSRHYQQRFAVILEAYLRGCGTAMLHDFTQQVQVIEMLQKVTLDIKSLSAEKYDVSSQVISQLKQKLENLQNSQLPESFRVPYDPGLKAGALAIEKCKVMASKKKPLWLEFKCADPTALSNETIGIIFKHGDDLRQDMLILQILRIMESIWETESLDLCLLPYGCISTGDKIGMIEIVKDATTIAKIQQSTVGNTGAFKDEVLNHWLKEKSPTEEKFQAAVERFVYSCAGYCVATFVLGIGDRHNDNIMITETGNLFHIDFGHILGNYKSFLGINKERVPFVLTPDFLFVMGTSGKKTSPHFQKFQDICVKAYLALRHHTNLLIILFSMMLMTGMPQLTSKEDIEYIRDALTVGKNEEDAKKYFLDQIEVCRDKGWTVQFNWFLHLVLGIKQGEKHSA
Chain of PI3K δ (O00329 whole entry): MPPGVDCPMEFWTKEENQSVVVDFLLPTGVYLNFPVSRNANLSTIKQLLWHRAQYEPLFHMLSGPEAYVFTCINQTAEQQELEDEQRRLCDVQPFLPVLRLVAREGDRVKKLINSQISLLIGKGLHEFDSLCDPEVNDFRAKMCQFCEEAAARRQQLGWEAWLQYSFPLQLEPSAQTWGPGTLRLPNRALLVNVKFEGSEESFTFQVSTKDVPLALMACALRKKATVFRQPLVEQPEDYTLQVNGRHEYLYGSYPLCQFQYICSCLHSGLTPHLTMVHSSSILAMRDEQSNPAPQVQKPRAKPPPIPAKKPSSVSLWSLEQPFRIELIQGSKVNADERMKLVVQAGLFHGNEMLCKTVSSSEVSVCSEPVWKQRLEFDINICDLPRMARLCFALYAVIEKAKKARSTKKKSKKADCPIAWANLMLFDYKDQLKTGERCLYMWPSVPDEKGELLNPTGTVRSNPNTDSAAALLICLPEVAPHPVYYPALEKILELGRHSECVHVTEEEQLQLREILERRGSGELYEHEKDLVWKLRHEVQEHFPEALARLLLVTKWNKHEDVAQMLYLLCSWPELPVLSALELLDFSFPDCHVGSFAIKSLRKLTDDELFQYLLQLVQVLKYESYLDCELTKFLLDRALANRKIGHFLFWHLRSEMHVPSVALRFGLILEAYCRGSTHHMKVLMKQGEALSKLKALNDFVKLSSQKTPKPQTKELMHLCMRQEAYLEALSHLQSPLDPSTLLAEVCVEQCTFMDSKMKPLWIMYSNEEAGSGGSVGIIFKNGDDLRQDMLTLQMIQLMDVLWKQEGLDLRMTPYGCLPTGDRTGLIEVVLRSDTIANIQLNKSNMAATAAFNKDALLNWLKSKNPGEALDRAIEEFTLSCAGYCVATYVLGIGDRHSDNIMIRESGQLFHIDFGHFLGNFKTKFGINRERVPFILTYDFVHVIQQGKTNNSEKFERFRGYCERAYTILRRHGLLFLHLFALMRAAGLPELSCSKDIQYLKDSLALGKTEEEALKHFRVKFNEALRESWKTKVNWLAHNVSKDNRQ
Chain of PI3K δ (P27986 whole entry partner): as the sequence (P27986 whole entry partner) above
Procedure for PI3K β: An exemplary system is PI 3-Kinase (human) HTRF™ Assay from Upstate. […] Briefly, the assay is a time resolved FRET assay that indirectly measures PIP3 product formed by the activity of a PI3-K. The kinase reaction is performed in a microtitre plate (e.g., a 384 well microtitre plate). The total reaction volume is approximately 20 ul per well. In the first step, each well receives 2 ul of test compound in 20% dimethylsulphoxide resulting in a 2% DMSO final concentration. […] The plate is sealed and incubated for 15 minutes at room temperature. […] The plate is sealed and incubated for 1 hour at room temperature. The reaction is stopped by adding 5 ul of Stop Solution per well and then 5 ul of Detection Mix is added per well. The plate is sealed, incubated for 1 hour at room temperature, and then read on an appropriate plate reader. Data is analyzed and IC50s are generated using GraphPad Prism 5.
Procedure for mTOR: The compounds described herein can be tested against recombinant mTOR (Invitrogen) in an assay containing 50 mM HEPES, pH 7.5, 1 mM EGTA, 10 mM MgCl2, 2.5 mM, 0.01% Tween, 10 μM ATP (2.5 μCi of μ-32P-ATP), and 3 mg/mL BSA. Rat recombinant PHAS-1/4EBP1 (Calbiochem; 2 mg/mL) is used as a substrate. Reactions are terminated by spotting onto nitrocellulose, which is washed with 1M NaC1/1% phosphoric acid (approximately 6 times, 5-10 minutes each). Sheets are dried and the transferred radioactivity quantitated by phosphorimaging.
For instance, one can use Invitrogen's LanthaScreen™ Kinase assay to test the inhibitors of mTOR disclosed herein. This assay is a time resolved FRET platform that measures the phosphorylation of GFP labeled 4EBP1 by mTOR kinase. The kinase reaction is performed in a white 384 well microtitre plate. The total reaction volume is 20 ul per well and the reaction buffer composition is 50 mM HEPES pH7.5, 0.01% Polysorbate 20, 1 mM EGTA, 10 mM MnCl2, and 2 mM DTT. In the first step, each well receives 2 ul of test compound in 20% dimethylsulphoxide resulting in a 2% DMSO final concentration. […] The plate is sealed and incubated for 1 hour at room temperature. […] The plate is sealed, incubated for 1 hour at room temperature, and then read on a plate reader set up for LanthaScreen™ TR-FRET. Data is analyzed and IC50s are generated using GraphPad Prism 5.

As to `CCOC(=O)Cn1nc(-c2cc3cc(O)ccc3[nH]2)c2c(N)ncnc21` [Compound 28], the IC50 on mTOR (Table 2) is < 0.5 µM; at PI3K α, > 0.5 µM; on PI3K β (Table 2), > 0.5 µM; on PI3K δ, > 0.5 µM.

`COc1cc2cc(-c3nn(C(C)C)c4ncnc(N)c34)[nH]c2cc1Cl` [Compound 29]: on mTOR (Table 2), the IC50 was > 0.5 µM.

As for `CC(=O)N1CCC(n2nc(-c3cc4cc(O)ccc4[nH]3)c3c(N)ncnc32)CC1` [Compound 30], the IC50 is < 0.025 µM on mTOR (Table 2), > 0.5 µM at PI3K α, > 0.5 µM on PI3K β (Table 2) and > 0.5 µM on PI3K δ (Table 2).

With `Nc1ncnc2c1c(-c1cc3cc(O)ccc3[nH]1)nn2C1CCN(C(=O)C2CC2)CC1` [Compound 31], the IC50 is < 0.025 µM on mTOR (Table 2), > 0.5 µM at PI3K α, > 0.5 µM on PI3K β (Table 2) and 0.1 to 0.5 µM on PI3K δ (Table 2).

For the compound `CC(C)n1nc(-c2cc3cc(O)c(Cl)cc3[nH]2)c2c(N)ncnc21` [Compound 32], the IC50 on mTOR (Table 2) is < 0.5 µM; at PI3K α it was > 0.5 µM; on PI3K γ (Table 2), > 0.5 µM; on PI3K δ, > 0.5 µM.

Turning to `Nc1ncnc2c1c(-c1cc3cc(O)ccc3[nH]1)nn2CCN1CCOCC1` [Compound 33], the half-inhibitory concentration (IC50) on mTOR (Table 2) is < 0.5 µM; at PI3K α (Table 2), > 0.5 µM; on PI3K γ (Table 2), > 0.5 µM; on PI3K δ (Table 2), > 0.5 µM.

Consider `Nc1ncnc2c1c(-c1cc3cc(O)ccc3[nH]1)nn2CC(=O)N1CCOCC1` [Compound 34], for which the IC50 on mTOR (Table 2), on PI3K α, at PI3K γ and on PI3K δ was > 0.5 µM throughout.

In the case of `CNC(=O)Cn1nc(-c2cc3cc(O)ccc3[nH]2)c2c(N)ncnc21` [Compound 35], the IC50 on mTOR (Table 2), on PI3K α, at PI3K γ (Table 2) and on PI3K δ was > 0.5 µM each time.

For `Nc1ncnc2c1c(-c1cc3cccc(O)c3[nH]1)nn2C1CCCC1` [Compound 36], the IC50 was < 0.01 µM on mTOR (Table 2), > 0.5 µM at PI3K α (Table 2), 0.05 to 0.1 µM on PI3K γ (Table 2) and 0.1 to 0.5 µM at PI3K δ (Table 2).

`Nc1ncnc2c1c(-c1cc3cc(O)ccc3[nH]1)nn2Cc1cccnc1` [Compound 38]: the IC50 on mTOR (Table 2) is < 0.5 µM; on PI3K α (Table 2) it was > 0.5 µM; at PI3K γ, > 0.5 µM; at PI3K δ (Table 2), > 0.5 µM.

`CC(C)n1nc(-c2cc3c(Cl)ccc(O)c3[nH]2)c2c(N)ncnc21` [Compound 39]: the concentration for half-maximal inhibition (IC50) is < 0.01 µM at mTOR (Table 2), > 0.5 µM at PI3K α (Table 2), > 0.5 µM on PI3K γ and > 0.5 µM on PI3K δ (Table 2).

In the case of `COCCn1nc(-c2cc3cc(O)ccc3[nH]2)c2c(N)ncnc21` [Compound 40], the IC50 was < 0.1 µM on mTOR (Table 2), > 0.5 µM on PI3K α (Table 2), > 0.5 µM on PI3K γ (Table 2) and > 0.5 µM at PI3K δ.

In the case of `Nc1ncnc2c1c(-c1cc3cc(O)ccc3[nH]1)nn2C1CCOCC1` [Compound 42], the IC50 is < 0.005 µM on mTOR (Table 2), > 0.5 µM on PI3K α, > 0.5 µM on PI3K β (Table 2) and 0.05 to 0.1 µM at PI3K δ.

As to `CNC(=O)CCn1nc(-c2cc3cc(O)ccc3[nH]2)c2c(N)ncnc21` [Compound 43], the IC50 at mTOR (Table 2), on PI3K α, at PI3K β (Table 2) and at PI3K δ (Table 2) was > 0.5 µM in each case.

In the case of `Cc1nccn1CCn1nc(-c2cc3cc(O)ccc3[nH]2)c2c(N)ncnc21` [Compound 44], the IC50 on mTOR (Table 2) was < 0.1 µM; on PI3K α (Table 2) it was > 0.5 µM; on PI3K β (Table 2) it was > 0.5 µM; at PI3K δ, > 0.5 µM.

With `CC(C)n1nc(-c2cc3cc(O)ccc3[nH]2)c2c(N)nccc21` [Compound 45], the IC50 on mTOR (Table 2) is > 0.5 µM.

With `Nc1ncnc2c1c(-c1cc3cc(O)ccc3[nH]1)nn2C1CC(=O)C1` [Compound 53], the IC50 at mTOR (Table 2) was < 0.1 µM; at PI3K α, > 0.5 µM; on PI3K β (Table 2), > 0.5 µM; on PI3K γ (Table 2), > 0.5 µM.

In the case of `Nc1ncnc2c1c(-c1cc3cc(O)ccc3[nH]1)nn2C1CC(O)C1` (stereo not shown) [Compound 54], the IC50 was < 0.025 µM at mTOR (Table 2), > 0.5 µM on PI3K α (Table 2), > 0.5 µM at PI3K β (Table 2) and > 0.5 µM at PI3K γ (Table 2).

In the case of `CC(C)N1CCC(n2nc(-c3cc4cc(O)ccc4[nH]3)c3c(N)ncnc32)CC1` [Compound 55], the IC50 at mTOR (Table 2) was < 0.5 µM; at PI3K α (Table 2) it was > 0.5 µM; at PI3K β (Table 2) it was > 0.5 µM; on PI3K γ (Table 2), > 0.5 µM.

In the case of `Nc1nc2cc(-c3ccc4ncc(C(=O)NC5CCC(O)CC5)n4c3)ccc2o1` (stereo not shown) [Compound 143], the IC50 at mTOR was > 10 µM; at PI3K β it was < 10 µM; on PI3K γ it was < 0.1 µM.

What is called IC50 is the concentration at which inhibition is half-maximal.
